# Assay results: paper PMC4762374 (MedChemComm, 2015)
# pKi: −log10 of the molar value.
# What was measured:
# NDM-1 (Purified) = NDM-1 (Purified) (Klebsiella pneumoniae, UniProt C7C422); experiment: In vitro β-lactamase inhibition screening, NDM-1; format: biochemical; details: for inhibition of NDM-1 (in words): class B enzymes, effect of N-thiolation
# CTX-M-14 (Purified) = CTX-M-14 (Purified) (Escherichia coli, UniProt Q9L5C7); experiment: In vitro β-lactamase inhibition screening, CTX-M-14; format: biochemical
# M. vaccae = experiment: Kirby-Bauer antibacterial agar diffusion assay; format: cell-based
# M.tb (H37Rv) = experiment: Microplate alamar blue assay; format: cell-based, Mycobacterium tuberculosis; details: against M.tb
# NDM-1 (Purified), sequence (C7C422 29-270 limits assumed): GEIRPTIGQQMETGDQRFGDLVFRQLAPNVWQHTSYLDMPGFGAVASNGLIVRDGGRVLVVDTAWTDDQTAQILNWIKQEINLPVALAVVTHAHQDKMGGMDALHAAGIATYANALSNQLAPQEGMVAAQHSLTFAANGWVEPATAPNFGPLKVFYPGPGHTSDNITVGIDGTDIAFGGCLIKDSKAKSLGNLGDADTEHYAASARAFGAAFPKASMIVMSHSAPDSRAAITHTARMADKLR
smiles,measurement,setting,value
CCOc1ccc(C(=O)N(OCc2ccccc2)C2CC(=O)N2SC)cc1 (centres unmarked) [Compound 8b],inhibition of NDM-1 (in words),NDM-1 (Purified),potent inhibitor
C=CCON(C(=O)c1ccc([N+](=O)[O-])cc1)C1CC(=O)N1SC (centres unmarked) [Compound 8c],inhibition of NDM-1 (in words),NDM-1 (Purified),potent inhibitor
O=C(Cc1ccccc1)N[C@@H]1C(=O)N[C@H]1N(OCc1ccccc1)C(=O)c1ccccc1 [Compound 18],pKi,CTX-M-14 (Purified),7.30
same,pKi,NDM-1 (Purified),< 3.80
C=CCON(C(=O)c1ccc([N+](=O)[O-])cc1)C1CC(=O)N1 (centres unmarked) [Compound 7c],inhibition of NDM-1 (in words),NDM-1 (Purified),inactive
CSN1C(=O)[C@@H](NC(=O)COc2ccccc2)[C@@H]1N(OCc1ccccc1)C(=O)c1ccccc1 (racemic) [Compound 24a],activity in the agar studies (in words),M. vaccae,not very active
CC(C)(C)[Si](C)(C)N1C(=O)CC1N(OCc1ccccc1)C(=O)c1ccccc1 (centres unmarked) [Compound 6],activity in the agar studies (in words),M. vaccae,not very active
CSN1C(=O)[C@@H](NC(=O)COc2ccccc2)[C@@H]1N(OCc1ccccc1)C(=O)c1cc([N+](=O)[O-])cc(C(F)(F)F)c1 (racemic) [Compound 24b],inhibition of NDM-1 (in words),NDM-1 (Purified),potent inhibitor
CCOc1ccc(C(=O)N(OCc2ccccc2)C2CC(=O)N2)cc1 (centres unmarked) [Compound 7b],inhibition of NDM-1 (in words),NDM-1 (Purified),inactive
C[C@@H](O[Si](C)(C)C(C)(C)C)[C@H]1C(=O)N[C@@H]1N(OCc1ccccc1)C(=O)c1ccccc1 [Compound 11],anti-TB activity (in words),M.tb (H37Rv),did not exhibit noticeable anti-TB activity
CSN1C(=O)[C@H]([C@@H](C)O[Si](C)(C)C(C)(C)C)[C@H]1N(OCc1ccccc1)C(=O)c1ccccc1 [Compound 13],anti-TB activity (in words),M.tb (H37Rv),good activity
same,activity in the agar studies (in words),M. vaccae,not very active
C[C@@H](O)[C@H]1C(=O)N[C@@H]1N(OCc1ccccc1)C(=O)c1ccccc1 [Compound 12],anti-TB activity (in words),M.tb (H37Rv),inactive
same,β-lactamase inhibitory activity (in words),"CTX-M-14 (Purified); after silyl removal, compared with CTX-M-14-directed compound 13",inactive
